Data set [1] deals with RAW264.7. In words: Anti-inflammatory activity against LPS-induced mouse RAW264.7 cells assessed as inhibition of NO production at 20 uM preincubated for 2 hrs followed by LPS addition and measured after 24 hrs by Griess reagent-based microplate reader analysis relative to control. It counts as functional. Also on record: scale not given: the % may be the effect or the level left. To be noted: time 26 hrs. In general terms: Nitrite, measured by Griess reagent, commonly stands in for NO production.

The subject of data set [2] is RAW264.7. In words: Anti-inflammatory activity against LPS-induced mouse RAW264.7 cells assessed as inhibition of NO production at 10 uM preincubated for 2 hrs followed by LPS addition and measured after 24 hrs by Griess reagent-based microplate reader analysis relative to control. Also on record: scale not given: the % may be the effect or the level left. It counts as functional. To be noted: time 26 hrs.

The nature of data set [3]: Cytotoxicity against mouse RAW264.7 cells assessed as cell viability at 40 uM incubated for 24 hrs by MTT assay relative to control. It counts as toxicity, cell-based. To be noted: read-out: Activity. A general note: Tetrazolium assays rely on reduction of a dye to a coloured formazan, in cell work by metabolically active cells.

Regarding `CC1(C)CC[C@]2(C(=O)OCc3ccccc3)CC[C@]3(C)C(=CC[C@@H]4[C@@]5(C)CCC(=O)[C@@](C)(COC(=O)CCCCCNC(=O)CCCC[C@@H]6CCSS6)[C@@H]5CC[C@]43C)[C@@H]2C1`, the Activity in the data set on RAW264.7 [1] stood at 75.31%; with RAW264.7 [2], 49.56%. Further, the viability at 24 h, 40 µM in data set [3] was 99.7%. The corresponding values for `CC(=O)CCC(=O)OC[C@]1(C)C(=O)CC[C@@]2(C)[C@H]1CC[C@]1(C)[C@@H]2CC=C2[C@@H]3CC(C)(C)CC[C@]3(C(=O)OCc3ccccc3)CC[C@]21C` are 59.4%, 43.51% and 106%. The corresponding values for `CC1(C)CC[C@]2(C(=O)OCc3ccccc3)CC[C@]3(C)C(=CC[C@@H]4[C@@]5(C)CCC(=O)[C@@](C)(COC(=O)CCC6CCCCC6)[C@@H]5CC[C@]43C)[C@@H]2C1` are 2.05%, 0.64% and 110%. The corresponding values for `CC1(C)CC[C@]2(C(=O)OCc3ccccc3)CC[C@]3(C)C(=CC[C@@H]4[C@@]5(C)CCC(=O)[C@@](C)(COC(=O)CCNC(=O)CCCC[C@@H]6CCSS6)[C@@H]5CC[C@]43C)[C@@H]2C1` are 62.67%, 43.82% and 99.4%. As for `CC1(C)CC[C@]2(C(=O)OCc3ccccc3)CC[C@]3(C)C(=CC[C@@H]4[C@@]5(C)C/C(=C/c6cnccn6)C(=O)[C@@](C)(CO)[C@@H]5CC[C@]43C)[C@@H]2C1`, the Activity came to 5.02% with RAW264.7 [1] and 4.56% in the data set on RAW264.7 [2]. Further, the viability at 24 h, 40 µM in data set [3] came to 3.34%.

Regarding `CC1(C)CC[C@]2(C(=O)OCc3ccccc3)CC[C@]3(C)C(=CC[C@@H]4[C@@]5(C)C/C(=C/c6cncs6)C(=O)[C@@](C)(CO)[C@@H]5CC[C@]43C)[C@@H]2C1`, the viability at 24 h, 40 µM in data set [3] was determined as 64.8%.

Turning to `CC1(C)CC[C@]2(C(=O)OCc3ccccc3)CC[C@]3(C)C(=CC[C@@H]4[C@@]5(C)C/C(=C/c6ccc([N+](=O)[O-])cc6)C(=O)[C@@](C)(CO)[C@@H]5CC[C@]43C)[C@@H]2C1`, in data set [3], the viability at 24 h, 40 µM turned out to be 119%. On the same count and under the same terms, under `CC1(C)CC[C@]2(C(=O)OCc3ccccc3)CC[C@]3(C)C(=CC[C@@H]4[C@@]5(C)CCC(=O)[C@@](C)(COC(=O)CCN6CCCCC6)[C@@H]5CC[C@]43C)[C@@H]2C1` stands 3.82%. As to `COCC(=O)OC[C@]1(C)C(=O)CC[C@@]2(C)[C@H]1CC[C@]1(C)[C@@H]2CC=C2[C@@H]3CC(C)(C)CC[C@]3(C(=O)OCc3ccccc3)CC[C@]21C`, the results for the Activity in the data set on RAW264.7 [1] and in the data set with RAW264.7 [2] were 61.15% and 42.74%, respectively. For the same compound, in data set [3], the viability at 24 h, 40 µM was found to be 105%. For `CC(C)=CC(=O)OC[C@]1(C)C(=O)CC[C@@]2(C)[C@H]1CC[C@]1(C)[C@@H]2CC=C2[C@@H]3CC(C)(C)CC[C@]3(C(=O)OCc3ccccc3)CC[C@]21C`, the values for the Activity in the data set with RAW264.7 [1] and with RAW264.7 [2] were 25.68% and 16.39%, respectively. Moreover, in data set [3], the viability at 24 h, 40 µM turned out to be 95%.

Take `CC[C@H](C)[C@H](NC(=O)CCCC[C@@H]1CCSS1)C(=O)OC[C@]1(C)C(=O)CC[C@@]2(C)[C@H]1CC[C@]1(C)[C@@H]2CC=C2[C@@H]3CC(C)(C)CC[C@]3(C(=O)OCc3ccccc3)CC[C@]21C`: the figures for the Activity in the data set with RAW264.7 [1] and in the data set with RAW264.7 [2] were 25.3% and 17.94%, respectively. Also, the viability at 24 h, 40 µM in data set [3] came to 96%. `CC1(C)CC[C@]2(C(=O)OCc3ccccc3)CC[C@]3(C)C(=CC[C@@H]4[C@@]5(C)C/C(=C/c6ccccc6)C(=O)[C@@](C)(CO)[C@@H]5CC[C@]43C)[C@@H]2C1`: in data set [3], the viability at 24 h, 40 µM was found to be 68.1%.

Consider `CC1(C)CC[C@]2(C(=O)OCc3ccccc3)CC[C@]3(C)C(=CC[C@@H]4[C@@]5(C)C/C(=C/c6cscn6)C(=O)[C@@](C)(CO)[C@@H]5CC[C@]43C)[C@@H]2C1`, for which the viability at 24 h, 40 µM in data set [3] was determined as 85%.

For the compound `CC1(C)CC[C@]2(C(=O)O)CC[C@]3(C)C(=CC[C@@H]4[C@@]5(C)CCC(=O)[C@@](C)(CO)[C@@H]5CC[C@]43C)[C@@H]2C1`, in data set [3], the viability at 24 h, 40 µM stood at 109%. On the same count and under the same terms, under `CC1(C)CC[C@]2(C(=O)OCc3ccccc3)CC[C@]3(C)C(=CC[C@@H]4[C@@]5(C)C/C(=C/c6cccs6)C(=O)[C@@](C)(CO)[C@@H]5CC[C@]43C)[C@@H]2C1` stands 72.1%. `CC1(C)CC[C@]2(C(=O)OCc3ccccc3)CC[C@]3(C)C(=CC[C@@H]4[C@@]5(C)CCC(=O)[C@@](C)(COC(=O)c6cc7ccccc7[nH]6)[C@@H]5CC[C@]43C)[C@@H]2C1`: the values for the Activity in the data set on RAW264.7 [1] and in the data set with RAW264.7 [2] were 42.11% and 22.29%, respectively. Besides, the viability at 24 h, 40 µM in data set [3] worked out at 110%.

`CC1(C)CC[C@]2(C(=O)OCc3ccccc3)CC[C@]3(C)C(=CC[C@@H]4[C@@]5(C)C/C(=C/c6ccccc6Br)C(=O)[C@@](C)(CO)[C@@H]5CC[C@]43C)[C@@H]2C1`: the Activity with RAW264.7 [1] was 12.61%; in the data set with RAW264.7 [2], 5.33%. Also, the viability at 24 h, 40 µM in data set [3] was found to be 92.2%. For `CC1(C)CC[C@]2(C(=O)OCc3ccccc3)CC[C@]3(C)C(=CC[C@@H]4[C@@]5(C)CCC(=O)[C@@](C)(COC(=O)CCC6CCCC6)[C@@H]5CC[C@]43C)[C@@H]2C1`, the Activity was 0.76% in the data set on RAW264.7 [1] and 0.34% with RAW264.7 [2]. Besides, the viability at 24 h, 40 µM in data set [3] turned out to be 105%. On the same counts, the results for `CC1(C)CC[C@]2(C(=O)OCc3ccccc3)CC[C@]3(C)C(=CC[C@@H]4[C@@]5(C)C/C(=C/c6ccccc6[N+](=O)[O-])C(=O)[C@@](C)(CO)[C@@H]5CC[C@]43C)[C@@H]2C1` are 7.94%, 1.44% and 65%.

`CC1(C)CC[C@]2(C(=O)OCc3ccccc3)CC[C@]3(C)C(=CC[C@@H]4[C@@]5(C)CCC(=O)[C@@](C)(COC(=O)CCc6ccccc6)[C@@H]5CC[C@]43C)[C@@H]2C1`: the viability at 24 h, 40 µM in data set [3] was determined as 76.1%. On to `CC1(C)CC[C@]2(C(=O)OCc3ccccc3)CC[C@]3(C)C(=CC[C@@H]4[C@@]5(C)C/C(=C/c6nccs6)C(=O)[C@@](C)(CO)[C@@H]5CC[C@]43C)[C@@H]2C1`, for which the viability at 24 h, 40 µM in data set [3] is 62.8%.

As for `CC1(C)CC[C@]2(C(=O)OCc3ccccc3)CC[C@]3(C)C(=CC[C@@H]4[C@@]5(C)CCC(=O)[C@@](C)(COC(=O)CNC(=O)CNC(=O)CCCC[C@@H]6CCSS6)[C@@H]5CC[C@]43C)[C@@H]2C1`, the viability at 24 h, 40 µM in data set [3] came to 78.5%. The same measure, in the same setting: as for `CC1(C)CC[C@]2(C(=O)OCc3ccccc3)CC[C@]3(C)C(=CC[C@@H]4[C@@]5(C)CCC(=O)[C@@](C)(COC(=O)C(F)(F)F)[C@@H]5CC[C@]43C)[C@@H]2C1`, the figure is 4.58%. Regarding `CC1(C)CC[C@]2(C(=O)OCc3ccccc3)CC[C@]3(C)C(=CC[C@@H]4[C@@]5(C)C/C(=C/c6ccsc6)C(=O)[C@@](C)(CO)[C@@H]5CC[C@]43C)[C@@H]2C1`, the viability at 24 h, 40 µM in data set [3] is 66.9%. Same read-out and setting: under `CC1(C)CC[C@]2(C(=O)OCc3ccccc3)CC[C@]3(C)C(=CC[C@@H]4[C@@]5(C)CCC(=O)[C@@](C)(COC(=O)CCCCNC(=O)CCCC[C@@H]6CCSS6)[C@@H]5CC[C@]43C)[C@@H]2C1` stands 31.6%.

(Values after ChEMBL document CHEMBL5537127, “Design and synthesis of novel hederagonic acid analogs as potent anti-inflammatory compounds capable of protecting against LPS-induced acute lung injury” (Eur J Med Chem, 2024).)
